Laboratory results from paper PMC7179167 (Molecules, 2020).
In brackets after ≈: the same amount, converted by molar mass. Where two headings read alike, the source gives them in different places.

How the values were obtained:
E. coli (DSMZ 1058) = assay: Disk diffusion antimicrobial test, E. coli; format: cell-based; conditions: Escherichia coli, DSMZ1058, Gram-negative, 20 mg per disc (title), concentration 20 µg (footnote)
Method: (§1) The newly synthesized compounds were chosen to be evaluated in vitro towards a variety of pathogenic microorganisms; Gram-positive bacteria: S. aureus (ATCC 6538) and B. subtilis (ATCC 6633); Gram-negative bacteria: P. areuginosa (ATCC 27853) and E. coli (DSMZ 1058); yeast: C. albicans (ATCC 10231) and S. cerevisiae (ATCC 9080) and fungi: A. niger (NRRL A-326) using the disk diffusion method at a single dose of 20 µl. The results are shown in Table 1 as the growth inhibition zone (mm).
The antimicrobial activity of target compounds were evaluated to be in vitro against a variety of pathogenic microorganisms, namely Staphylococcus aureus (ATCC 6538), Bacillus subtilis (ATCC 6633) (Gram-positive bacteria), Pseudomonas areuginosa (ATCC 27853), Escherichia coli (DSMZ 1058) (Gram-negative bacteria), Candida albicans (ATCC 10231), Saccharomyces cerevisiae (ATCC 9080) (Yeast) and Aspergillus niger (NRRL A-326) (Fungi) using the disk diffusion method at a single dose of 20 µg. The microorganisms were served and obtained from the Microbial Biotechnology Department, National Research Center, Giza, Egypt. Amphotericin, amoxicillin and ciprofloxacin were used as reference drugs (Oxoid™ Disks). The tested compounds 11a–c, 12a–c, 13a–i, 14a–i and 15a,b were dissolved in dimethylsulphoxide (DMSO) at a concentration of 1 mg/mL. […]

[1] = tested on: P. aeruginosa (ATCC 27853); assay: Disk diffusion antimicrobial test, P. aeruginosa; format: cell-based, Pseudomonas areuginosa; conditions: Pseudomonas aeruginosa, ATCC27853, Gram-negative, 20 mg per disc (title), concentration 20 µg (footnote)
Method: as §1
(§2) The antimicrobial activity of target compounds were evaluated to be in vitro against a variety of pathogenic microorganisms, namely Staphylococcus aureus (ATCC 6538), Bacillus subtilis (ATCC 6633) (Gram-positive bacteria), Pseudomonas areuginosa (ATCC 27853), Escherichia coli (DSMZ 1058) (Gram-negative bacteria), Candida albicans (ATCC 10231), Saccharomyces cerevisiae (ATCC 9080) (Yeast) and Aspergillus niger (NRRL A-326) (Fungi) using the disk diffusion method at a single dose of 20 µg. The microorganisms were served and obtained from the Microbial Biotechnology Department, National Research Center, Giza, Egypt. Amphotericin, amoxicillin and ciprofloxacin were used as reference drugs (Oxoid™ Disks). The tested compounds 11a–c, 12a–c, 13a–i, 14a–i and 15a,b were dissolved in dimethylsulphoxide (DMSO) at a concentration of 1 mg/mL. Aliquots of 20 μl were soaked on filter paper discs (6 mm) and dried at room temperature under sterilized conditions. The paper discs were placed on inoculated agar plats and then incubated for 24 h at 37 °C for bacterial strains and after 48–72 h incubation at 30 °C for fungi. Both bacterial and yeast strains were grown on nutrient agar medium (g/l): beef extract, 3; peptone, 10 and agar, 20 at pH of 7.2. The fungal strain was grown on Czapek-Dox medium (g/l): sucrose, 30; NaNO3, 3; MgSO4.7H2O, 0.5l; KCl, 0.5; FeSO4, 0.01; K2HPO4, 1 and agar, 20 at pH of 6.0.

[2] = DPPH free radical scavenging assay; format: biochemical; conditions: concentration of 20µg/l, mean ± SD of three experiments
Method: Antioxidant activity of the newly synthesized 13a–i, 14a–i, 11a–c and 12a–c were assessed in terms of hydrogen-donating or radical-scavenging ability via the stable free radical 1,1-diphenyl-2-picrylhydrazyl (DPPH) using ascorbic acid as a reference at a concentration of […].
The free radical scavenging activity (RSA) was assessed spectrophotometically at 517 nm via decoloration of the solution of the DPPH (1,1-diphenyl-2-picrylhydrazyl) radical according to Brand-Williams et al. 1995 [32]. DPPH solution was prepared by dissolving of 20 mg of DPPH in one liter of dimethylsulphoxide (DMSO). A freshly prepared DPPH solution was used for the assay. Each of the tested compounds 11a–c, 12a–c, 13a–i, 14a–i and 15a,b were dissolved in DMSO (1mg/mL). A volume of […] of a DMSO stock solution of the test compounds was added to 2 mL of freshly prepared DPPH in DMSO solution. The mixtures were shaken in a vortex (2500 rpm) for 1 min and then left to stand for 15, 30, 45 and 60 min in the dark room. The absorbance was measured at 517 nm against blank using UV visible spectrophotometer 2401 PC (Shimadzu, Kyoto, Japan). Lower absorbance of the reaction mixture indicated higher free radical scavenging activity was analyzed from the graph plots of the inhibition percentage against the compound concentration. The experiment was carried out in triplicate and averaged. The scavenging activity was calculated according to the following formula:Scavenging ability (%) = (A517 of control - A517of sample / A 517 of control) ×100(1)

C. albicans (ATCC 10231) = assay: Disk diffusion antimicrobial test, C. albicans; format: cell-based, Candida albicans; conditions: Candida albicans, ATCC10231, disk diffusion; yeast; 20 mg per disc (title), concentration 20 µg (footnote)
Method: as §1, §2

A. niger (NRRL A-326) = assay: Disk diffusion antimicrobial test, A. niger; format: cell-based; conditions: Aspergillus niger, fungi, 20 mg per disc (title), concentration 20 µg (footnote)
Method: as §1, §2

B. subtilis (ATCC 6633) = assay: Disk diffusion antimicrobial test, B. subtilis; format: cell-based, Bacillus subtilis; conditions: Bacillus subtilis, ATCC6633, Gram-positive, 20 mg per disc (title), concentration 20 µg (footnote)
Method: as §1, §2

S. aureus (ATCC 6538) = assay: Disk diffusion antimicrobial test, S. aureus; format: cell-based, Staphylococcus aureus; conditions: Staphylococcus aureus, ATCC6538, Gram-positive, 20 mg per disc (title), concentration 20 µg (footnote)
Method: as §1, §2

p53 [3] = assay: p53 ELISA in HCT-116 cells; format: cell-based, human; conditions: HCT-116 cells treated at IC50 concentration; control 1.68 ± 0.06; mean ± SD
From the text: (§3) The promising antiproliferative results reported for compounds 11a, 11b, 12a, 12b and 13c against cell lines under study have prompted us to investigate the mechanism of cell death induced by these compounds. Apoptosis induction was examined in both MCF-7 and HCT-116 cancer cells by assaying the level of its key protein markers, namely: proapoptotic (p53, Bcl 2-associated X, Bax and caspases3) and antiapoptotic (B-cell lymphoma-2, Bcl-2). MCF-7 and HCT-116 cells undergoing apoptosis was detected by use of the ELISA technique. Protein marker levels were quantified according to Bradford assay.
(§4) Briefly, cells ([…] and HCT) were seeded at a concentration of 1.2–1.8 × 10^3 cells/well in 6-well plates. After 48-h treatment, the collected cells were lysed and centrifuged at 10,000 rpm for 20 min at 4 °C. The protein concentration was measured in the supernatant by Bradford protein assay. Volume containing […] of total protein was incubated with […] of caspase substrate in […] of the reaction buffer at 37 °C for 1 h in the dark. Caspase-3 activity was determined by a microplate reader at 405 nm using a caspase-3 colorimetric assay kit (Abcam) according to the manufacturer’s instructions. In vitro protein level quantitative measurement of apoptotic marker p53, Bcl-2-associated X (Bax) and antiapoptotic marker B-cell lymphoma-2 (Bcl-2) in cell lysate were assessed by Enzyme-Linked Immunosorbent Assay Simple Step ELISA® (ab199080, ab119506 and ab171571; Abcam) according to the manufacturer’s instructions.

caspase-3 [4] = assay: Caspase-3 colorimetric assay in HCT-116 cells; format: cell-based, human; conditions: HCT-116 cells treated at IC50 concentration; control 13.60 ± 2.45; mean ± SD
From the text: as §3, §4

Bax [5] = assay: Bax ELISA in HCT-116 cells; format: cell-based, human; conditions: HCT-116 cells treated at IC50 concentration; control 118.54 ± 0.83; mean ± SD
From the text: as §3, §4

[6] = tested on: MCF-7 (human breast cancer); assay: MTT cytotoxicity assay, MCF-7; format: cell-based
Method: (§5) MCF-7 (human breast cancer), HCT-116 (human colon cancer) and HepG2 (human liver cancer) cell lines were obtained from Karolinska Institute, Stockholm, Sweden. All cells were maintained in RPMI 1640 medium. The media were supplemented with 10% heat-inactivated fetal bovine serum plus 1% antibiotic-antimycoticmixture (10,000 U/mL of potassium penicillin, 10,000 μg/mL of streptomycin sulfate, 25 μg/mL of amphotericin B and 1% of L glutamine (Biowest, USA)). BJ-1 of a human skin fibroblast derived from normal foreskin was obtained from ATCC® CRL-2522™ as a frozen ampoule with about 1 × 10^6 cells per 1 ml volume. BJ-1 was maintained in MEM with 2 mM of L-glutamine and Earle’s salts medium.
(§6) Cell viability was studied using the MTT 3-(4,5-dimethylthiazol-2-yl)-2,5-diphenyl-tetrazolium bromide (Bio Basic Canada Inc. Toronto, Canada) assay [33]. The steps were executed in a sterile laminar air flow cabinet biosafety class II level (Baker, SG403INT; Sanford, ME, USA). All incubations were carried out at 37 °C in a 5% CO2 incubator under a humidified atmosphere of 95% (Sheldon, TC2323; Cornelius, OR, USA). Cells were seeded into 96-well microtiter plastic plates at a concentration of (10^4 cells/well) and allowed to adhere for 24 h. The medium was aspirated and then added to the cells with the test compounds 11a–c, 12a–c, 13a–i, 14a–i and 15a,b at a single dose of 100 μg/mL in DMSO. After incubation of the medium for 48 h, 40 μL of MTT salt (2.5 μg/mL) was added to each well and then incubated for an additional 4 h. To stop the reaction and dissolve any formed formazan crystals, 200 μL of 10% sodium dodecyl sulfate (SDS) were added to each well and incubated overnight at 37 °C. The amount of formazan product was measured at 595 nm with a reference wavelength of 690 nm as a background using a microplate reader (Bio-Rad Laboratories, model 3350, California, USA). For the untreated cells (negative control), the medium was added instead of the tested compounds. […] Dimethylsulfoxide (DMSO) was the vehicle used for dissolution of the testing compound, and its final concentration on the cells was less than 0.2%. At the same dilution, the solvent concentration was the same for all drugs and between the control and drug treatments.

Bcl-2 [7] = assay: Bcl-2 ELISA in HCT-116 cells; format: cell-based, human; conditions: HCT-116 cells treated at IC50 concentration; control 23.56 ± 3.56; mean ± SD
From the text: as §3, §4

Bcl-2 [8] = assay: Bcl-2 ELISA in MCF-7 cells; format: cell-based, human; conditions: MCF-7 cells treated at IC50 concentration; control 25.13 ± 3.45; mean ± SD
From the text: as §3, §4

[9] = tested on: normal skin fibroblast cells (BJ-1); assay: MTT cytotoxicity assay, normal skin fibroblast BJ-1; format: cell-based; conditions: Homo sapiens, 48 h, read-out: Growth Inhibition (%) BJ-1
Method: as §5, §6

[10] = tested on: HCT-116 (human colon cancer); assay: MTT cytotoxicity assay, HCT-116; format: cell-based; conditions: Homo sapiens
Method: as §5, §6

Bax [11] = assay: Bax ELISA in MCF-7 cells; format: cell-based, human; conditions: MCF-7 cells treated at IC50 concentration; control 39.56 ± 4.56; mean ± SD
From the text: as §3, §4

p53 [12] = assay: p53 ELISA in MCF-7 cells; format: cell-based, human; conditions: MCF-7 cells treated at IC50 concentration; control 4.18 ± 0.58; mean ± SD
From the text: as §3, §4

[13] = tested on: HepG-2 (human liver cancer); assay: MTT cytotoxicity assay, HepG-2; format: cell-based
caspase-3 [14] = assay: Caspase-3 colorimetric assay in MCF-7 cells; format: cell-based, human
From the text: as §3, §4

[15] = tested on: S. cerevisiae (ATCC 9080); assay: Disk diffusion antimicrobial test, S. cerevisiae; format: cell-based; conditions: Saccharomyces cerevisiae, ATCC9080, yeast, 20 mg per disc (title), concentration 20 µg (footnote)
Method: as §1, §2

[16] = 15 min, read-out: Scavenging Activity (%) on DPPH radicals at 15 min
[17] = 30 min, read-out: Scavenging Activity (%) on DPPH radicals at 30 min
[18] = 45 min, read-out: Scavenging Activity (%) on DPPH radicals at 45 min
[19] = 60 min, read-out: Scavenging Activity (%) on DPPH radicals at 60 min

Question: For O=C(O)c1cn(C2CC2)c2cc(N3CCNCC3)c(F)cc2c1=O [Ciprofloxacin, ciprofloxacin, reference compound], which zone of inhibition at 20 µg/disc (E. coli (DSMZ 1058)) is on record?
Answer: 25.8 mm

Question: And the zone of inhibition at 20 µg/disc [1]?
Answer: 30.2 mm

Question: With COc1c(-c2cnc3ccccc3c2C(=O)O)c(O)cc2occc12 [Compound 15a, 3-(6-Hydroxy-4-methoxybenzofuran-5-yl)quinoline-4-carboxylic acid] as the compound, how does the inhibition [2, 16] read?
Answer: 9.36 ± 1.25%

Question: What about the inhibition [2, 17] of the same compound?
Answer: 14.2 ± 1.61%

Question: And the inhibition [2, 18]?
Answer: 20.4 ± 1.92%

Question: And the inhibition [2, 19]?
Answer: 24.8 ± 2.05%

Question: And the zone of inhibition at 20 µg/disc [1]?
Answer: 24 mm

Question: What about the zone of inhibition at 20 µg/disc (C. albicans (ATCC 10231)) of the same compound?
Answer: 12 mm

Question: What about the zone of inhibition at 20 µg/disc (A. niger (NRRL A-326)) of the same compound?
Answer: 10 mm

Question: And the zone of inhibition at 20 µg/disc (B. subtilis (ATCC 6633))?
Answer: 16 mm

Question: And the zone of inhibition at 20 µg/disc (S. aureus (ATCC 6538))?
Answer: 8 mm

Question: What about the melting point of the same compound?
Answer: 217 to 219 °C

Question: What does the source list for O=C1Nc2ccccc2C12CC(c1cn(Cc3ccccc3)c3ccccc13)=NN2 (centres unmarked) [Compound 13c, 5’-(N-Benzyl-1H-indol-3-yl)-2’,4’-dihydrospiro(indoline-3,3’-pyrazol)-2-one]?
Answer: p53 (pg/50 mg Protein) (p53 [3]): 2.34 ± 0.95 pg/50 mg Protein; inhibition [2, 16]: 14 ± 1.36%; inhibition [2, 17]: 21 ± 1.26%; inhibition [2, 18]: 24 ± 1.51%; inhibition [2, 19]: 35.1 ± 1.61%; Caspase-3 Activity % (caspase-3 [4]): 47.32 ± 6.32%; Bax (pg/50 mg Protein) (Bax [5]): 123.45 ±7.45 pg/50 mg Protein; inhibition at 100 µg/mL ([6]; MCF7, 100 µg/ml, 48 h, read-out: Growth Inhibition (%) MCF-7): 97.8%; IC50 ([6]; MCF7, 48 h post-treatment): 24.1 µg/mL (≈ 61.4 µM); Bcl-2 (ng/50 mg Protein) (Bcl-2 [7]): 57.45 ± 6.45 ng/50 mg Protein; Bcl-2 (ng/50 mg Protein) (Bcl-2 [8]): 44.5 ± 4.56 ng/50 mg Protein; inhibition at 100 µg/mL [9]: 5.1%; inhibition at 100 µg/mL ([10]; HCT-116, 100 µg/ml, 48 h, read-out: Growth Inhibition (%) HCT-116): 97.9%; IC50 ([10]; HCT-116, 48 h, 48 h post-treatment): 14.7 µg/mL (≈ 37.5 µM); Bax (pg/50 mg Protein) (Bax [11]): 88.34 ± 3.79 pg/50 mg Protein; p53 (Pg/50 mg Protein) (p53 [12]): 7.34 ± 1.5 Pg/50 mg Protein; inhibition at 100 µg/mL ([13]; HepG2, 100 µg/ml, 48 h, read-out: Growth Inhibition (%) HepG-2): 90.9%; IC50 ([13]; HepG2, 48 h post-treatment): 27 µg/mL (≈ 68.8 µM); Caspase-3 Activity % (caspase-3 [14]; MCF-7 cells treated at IC50 concentration, control 10.2 ± 2.84, mean ± SD): 39.07 ± 4.97%; Elevation of active caspase-3 protein levels compared to the control (caspase-3 [14]; MCF-7 cells, IC50 concentration): ~3.8 folds

Question: For C[C@@H]1[C@H](O)[C@@H](C)/C=C/C=C/C=C/C=C/C=C/C=C/C=C/[C@H](O[C@@H]2O[C@H](C)[C@@H](O)[C@H](N)[C@@H]2O)C[C@@H]2O[C@](O)(C[C@@H](O)C[C@@H](O)[C@H](O)CC[C@@H](O)C[C@@H](O)CC(=O)O[C@H]1C)C[C@H](O)[C@H]2C(=O)O [Amphotericin B, amphotericin B, reference compound], which zone of inhibition at 20 µg/disc (C. albicans (ATCC 10231)) is on record?
Answer: 23.5 mm

Question: What about the zone of inhibition at 20 µg/disc [15] of the same compound?
Answer: 23.5 mm

Question: What about the zone of inhibition at 20 µg/disc (A. niger (NRRL A-326)) of the same compound?
Answer: 26.7 mm
